This is an account of results in ChEMBL document CHEMBL4020733, “Approaches towards the development of chimeric DPP4/ACE inhibitors for treating metabolic syndrome” (Bioorg Med Chem Lett, 2017).

One data set concerns the target Dipeptidyl peptidase 4 (Homo sapiens, UniProt P27487). In words: Inhibition of human plasma DPP4.
Data set [1] is described as follows: Plasma protein binding in human. The format is ADME, cell-free. To be noted: read-out: PPB (converted).
Data set [2] can be described thus: Plasma protein binding in mouse. The format is ADME, cell-free. As to conditions: read-out: PPB (converted).
Data set [3] is described as follows: Plasma protein binding in rat. The format is ADME, cell-free. To be noted: read-out: PPB (converted).
Data set [4] can be described thus: Inhibition of APP (unknown origin). Also noted: species or system Homo sapiens.
The target in data set [5] is Angiotensin-converting enzyme (Homo sapiens, UniProt P12821). Description: Inhibition of human plasma ACE.
The next data set deals with Neprilysin (Homo sapiens, UniProt P08473). In words: Inhibition of NEP (unknown origin).
The target of another data set is Aminopeptidase N (Homo sapiens, UniProt P15144). Description: Inhibition of APN (unknown origin).

Bounds are passed on as bounds.

Neprilysin, sequence (P08473 whole entry): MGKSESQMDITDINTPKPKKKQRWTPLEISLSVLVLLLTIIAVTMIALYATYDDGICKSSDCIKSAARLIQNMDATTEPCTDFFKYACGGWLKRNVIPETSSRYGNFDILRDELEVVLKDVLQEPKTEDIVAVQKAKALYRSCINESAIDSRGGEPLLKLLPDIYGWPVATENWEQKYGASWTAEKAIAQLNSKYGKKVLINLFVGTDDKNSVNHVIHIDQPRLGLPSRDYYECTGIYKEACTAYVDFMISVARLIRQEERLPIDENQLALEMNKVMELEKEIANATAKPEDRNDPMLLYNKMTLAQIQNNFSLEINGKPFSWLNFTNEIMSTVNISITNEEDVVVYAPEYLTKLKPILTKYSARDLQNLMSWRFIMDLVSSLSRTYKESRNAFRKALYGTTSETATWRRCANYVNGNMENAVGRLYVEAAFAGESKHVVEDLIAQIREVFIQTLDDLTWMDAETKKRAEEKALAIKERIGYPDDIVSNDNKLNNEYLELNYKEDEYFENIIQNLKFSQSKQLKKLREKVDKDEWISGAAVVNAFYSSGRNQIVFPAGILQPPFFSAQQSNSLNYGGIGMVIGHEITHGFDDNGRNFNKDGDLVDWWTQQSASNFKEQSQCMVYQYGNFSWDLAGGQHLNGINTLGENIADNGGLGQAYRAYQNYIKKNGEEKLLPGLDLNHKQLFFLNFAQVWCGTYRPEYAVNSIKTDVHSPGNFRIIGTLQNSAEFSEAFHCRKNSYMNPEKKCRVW
Angiotensin-converting enzyme, sequence (P12821 whole entry): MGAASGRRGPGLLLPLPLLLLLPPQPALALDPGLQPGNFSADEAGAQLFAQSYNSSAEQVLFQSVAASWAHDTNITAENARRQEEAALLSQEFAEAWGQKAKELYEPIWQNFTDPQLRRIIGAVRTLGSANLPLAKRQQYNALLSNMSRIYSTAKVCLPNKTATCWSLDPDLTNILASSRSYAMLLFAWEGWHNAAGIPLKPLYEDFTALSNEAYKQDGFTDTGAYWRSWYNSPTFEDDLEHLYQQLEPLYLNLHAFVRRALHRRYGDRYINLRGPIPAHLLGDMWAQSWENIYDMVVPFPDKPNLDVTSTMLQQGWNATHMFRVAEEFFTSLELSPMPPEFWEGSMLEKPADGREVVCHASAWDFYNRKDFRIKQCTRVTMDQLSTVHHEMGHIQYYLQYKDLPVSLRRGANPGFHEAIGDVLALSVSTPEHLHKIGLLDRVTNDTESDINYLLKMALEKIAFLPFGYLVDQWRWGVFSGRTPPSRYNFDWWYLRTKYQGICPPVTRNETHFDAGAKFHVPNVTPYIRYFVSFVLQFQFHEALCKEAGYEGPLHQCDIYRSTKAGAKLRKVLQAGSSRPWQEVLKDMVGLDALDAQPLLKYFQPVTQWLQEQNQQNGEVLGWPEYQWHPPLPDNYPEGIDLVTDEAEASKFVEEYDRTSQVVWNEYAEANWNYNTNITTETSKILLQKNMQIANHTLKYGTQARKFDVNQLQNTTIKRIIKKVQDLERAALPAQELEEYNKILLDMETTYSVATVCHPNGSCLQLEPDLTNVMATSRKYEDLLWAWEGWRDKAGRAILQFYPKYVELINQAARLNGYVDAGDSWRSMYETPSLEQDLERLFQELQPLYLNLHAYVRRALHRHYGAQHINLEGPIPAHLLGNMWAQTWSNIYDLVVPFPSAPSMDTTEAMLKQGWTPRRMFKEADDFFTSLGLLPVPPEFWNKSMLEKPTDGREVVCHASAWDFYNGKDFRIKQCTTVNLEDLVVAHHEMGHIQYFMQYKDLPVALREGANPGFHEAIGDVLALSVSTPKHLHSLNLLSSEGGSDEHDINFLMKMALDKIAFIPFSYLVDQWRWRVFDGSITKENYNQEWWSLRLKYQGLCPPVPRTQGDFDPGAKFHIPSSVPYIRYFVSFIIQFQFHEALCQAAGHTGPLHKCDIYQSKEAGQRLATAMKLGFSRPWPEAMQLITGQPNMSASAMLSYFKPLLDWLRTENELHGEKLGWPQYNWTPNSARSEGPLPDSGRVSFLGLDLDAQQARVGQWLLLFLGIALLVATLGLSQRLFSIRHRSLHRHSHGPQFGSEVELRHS
Dipeptidyl peptidase 4, sequence (P27487 whole entry): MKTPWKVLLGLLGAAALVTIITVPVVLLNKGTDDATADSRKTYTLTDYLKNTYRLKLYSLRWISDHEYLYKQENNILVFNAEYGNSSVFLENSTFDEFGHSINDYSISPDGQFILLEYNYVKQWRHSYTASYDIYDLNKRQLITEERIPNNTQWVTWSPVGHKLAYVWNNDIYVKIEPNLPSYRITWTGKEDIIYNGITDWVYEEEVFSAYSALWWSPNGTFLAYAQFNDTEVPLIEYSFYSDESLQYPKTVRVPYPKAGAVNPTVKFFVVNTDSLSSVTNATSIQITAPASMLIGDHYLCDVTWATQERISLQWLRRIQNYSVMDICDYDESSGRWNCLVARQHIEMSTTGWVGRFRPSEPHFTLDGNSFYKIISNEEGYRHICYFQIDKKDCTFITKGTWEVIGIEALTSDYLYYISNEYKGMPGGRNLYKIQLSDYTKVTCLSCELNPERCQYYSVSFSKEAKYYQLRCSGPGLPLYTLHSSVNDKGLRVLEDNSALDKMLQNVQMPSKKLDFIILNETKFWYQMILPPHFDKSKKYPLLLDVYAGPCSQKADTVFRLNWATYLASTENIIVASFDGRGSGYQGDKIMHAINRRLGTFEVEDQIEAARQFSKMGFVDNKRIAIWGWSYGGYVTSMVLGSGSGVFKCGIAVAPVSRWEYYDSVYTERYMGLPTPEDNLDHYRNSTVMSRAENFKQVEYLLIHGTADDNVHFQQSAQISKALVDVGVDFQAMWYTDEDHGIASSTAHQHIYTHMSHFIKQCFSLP
Aminopeptidase N, sequence (P15144 whole entry): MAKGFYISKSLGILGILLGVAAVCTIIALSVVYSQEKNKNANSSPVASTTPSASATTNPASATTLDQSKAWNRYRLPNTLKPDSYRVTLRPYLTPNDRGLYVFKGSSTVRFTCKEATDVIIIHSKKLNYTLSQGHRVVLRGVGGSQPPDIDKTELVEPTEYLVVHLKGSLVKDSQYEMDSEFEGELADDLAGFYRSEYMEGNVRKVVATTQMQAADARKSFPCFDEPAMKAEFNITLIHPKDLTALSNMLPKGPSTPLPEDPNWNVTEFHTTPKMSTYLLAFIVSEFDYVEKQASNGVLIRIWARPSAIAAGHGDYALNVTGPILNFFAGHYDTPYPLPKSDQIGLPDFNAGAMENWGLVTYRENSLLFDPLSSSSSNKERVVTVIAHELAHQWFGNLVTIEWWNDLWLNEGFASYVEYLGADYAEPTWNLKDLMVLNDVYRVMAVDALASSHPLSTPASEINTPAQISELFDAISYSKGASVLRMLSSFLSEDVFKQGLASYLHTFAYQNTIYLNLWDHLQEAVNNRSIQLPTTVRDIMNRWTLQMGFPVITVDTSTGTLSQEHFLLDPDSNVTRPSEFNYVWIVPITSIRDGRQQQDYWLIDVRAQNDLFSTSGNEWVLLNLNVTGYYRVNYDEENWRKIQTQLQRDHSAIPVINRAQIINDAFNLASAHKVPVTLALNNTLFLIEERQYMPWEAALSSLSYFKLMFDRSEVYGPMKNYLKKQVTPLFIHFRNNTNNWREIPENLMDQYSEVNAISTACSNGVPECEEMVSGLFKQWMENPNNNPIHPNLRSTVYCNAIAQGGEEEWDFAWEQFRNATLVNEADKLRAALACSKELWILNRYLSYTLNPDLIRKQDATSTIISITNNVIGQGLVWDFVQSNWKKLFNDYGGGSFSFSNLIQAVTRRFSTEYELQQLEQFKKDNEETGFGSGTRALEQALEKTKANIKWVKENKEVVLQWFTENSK

By IC50 is commonly meant the concentration that gives 50% inhibition. Read a low IC50 as greater potency in that assay. In the case of `C[C@H](N[C@@H](CCc1ccccc1)C(=O)O)C(=O)N1CCC[C@H]1C(=O)O` [ENALAPRILAT ANHYDROUS], the IC50 against Dipeptidyl peptidase 4 was more than 100 µM. Besides, the fraction unbound in data set [1] was 0.341; in data set [2], 0.424; in data set [3], 0.456.

With `N[C@@H](CC(=O)N1CCn2c(nnc2C(F)(F)F)C1)Cc1cc(F)c(F)cc1F` [SITAGLIPTIN], the IC50 is more than 100 µM in data set [4], 11 µM in data set [5], more than 100 µM against Neprilysin and more than 100 µM against Aminopeptidase N. Besides, the fraction unbound in data set [1] was 0.53; in data set [2] it was 0.707; in data set [3] it was 0.587.
